Test results published in patent US12583861B2, “Derivatives of imidazo[4,5-d]pyridazine, their preparation and their therapeutic application” (SANOFI, priority 2021, dated 2026).

Experiments:
Type in all cases: cell-based
[1] = tested on: IL29; experiment: IL29 cytokine activation in human PBMC (MSD assay); settings: Homo sapiens, PBMC, 24 h
Protocol: (§1) The other below tests involving measuring the in vitro activity of some compounds of the disclosure on cytokines IFN-α2a, IL-6, IL29 and TNF-α were carried out using human PBMC (PBMCs).
(§2) The activity described below, with respect to TLR7, TLR8, IFN-α2a, IL-6, IL29 and TNF-α, is given by the half maximal effective concentration (EC50), which corresponds to the concentration required to obtain a 50% of the activation. The lower the EC50, the less the concentration of the compound is required to produce 50% of maximum activation and the higher the potency.
(§3) In Vitro Assay to Determine IFN-α2a, IL-6, IL29 and TNF-α Cytokine Activation:
(§4) Peripheral blood mononuclear cells were isolated by Ficoll density gradient centrifugation from peripheral blood samples obtained from healthy donors (EFS). Isolated PBMCs are washed twice with PBS and resuspended in RPMI-1640 medium supplement with 10% fetal bovine serum (FBS) at 5.10^5 cells/well in a 96-well plate. The cells were then incubated with the compounds to test at various doses (20 μM to 4.8.10-6 μM final) for 24 h at 37° C., 5% CO2. After 24 h treatment, the plates are centrifuged and the supernatant were collected and assayed for cytokines IFN-α2a, IL-6, IL29 and TNF-α using the Meso Scale Discovery (MSD) assay platform according to the manufacturer's instructions. Briefly, 25 μL of cell culture supernatants were incubated for 1 h at Room Temperature (RT) in custom Multi-Spot 96-well plates prior coated with capture antibodies. After washing, SULFO-TAG® labeled detection antibodies were added to each of the wells and incubated for 1 h RT before adding a read buffer.

[2] = biological target: T1, human TLR7 (Homo sapiens, UniProt Q9NYK1); experiment: HEK-Blue hTLR7 reporter cell assay (SEAP, NF-kB/AP-1) for stimulation of human TLR7; settings: HEK-Blue hTLR7 cells, 24 h incubation, SEAP readout; read-out: TLR7_EC50
T1 construct: host or cells: HEK293 (HEK-Blue hTLR7)
T1 sequence (Q9NYK1 27-1049): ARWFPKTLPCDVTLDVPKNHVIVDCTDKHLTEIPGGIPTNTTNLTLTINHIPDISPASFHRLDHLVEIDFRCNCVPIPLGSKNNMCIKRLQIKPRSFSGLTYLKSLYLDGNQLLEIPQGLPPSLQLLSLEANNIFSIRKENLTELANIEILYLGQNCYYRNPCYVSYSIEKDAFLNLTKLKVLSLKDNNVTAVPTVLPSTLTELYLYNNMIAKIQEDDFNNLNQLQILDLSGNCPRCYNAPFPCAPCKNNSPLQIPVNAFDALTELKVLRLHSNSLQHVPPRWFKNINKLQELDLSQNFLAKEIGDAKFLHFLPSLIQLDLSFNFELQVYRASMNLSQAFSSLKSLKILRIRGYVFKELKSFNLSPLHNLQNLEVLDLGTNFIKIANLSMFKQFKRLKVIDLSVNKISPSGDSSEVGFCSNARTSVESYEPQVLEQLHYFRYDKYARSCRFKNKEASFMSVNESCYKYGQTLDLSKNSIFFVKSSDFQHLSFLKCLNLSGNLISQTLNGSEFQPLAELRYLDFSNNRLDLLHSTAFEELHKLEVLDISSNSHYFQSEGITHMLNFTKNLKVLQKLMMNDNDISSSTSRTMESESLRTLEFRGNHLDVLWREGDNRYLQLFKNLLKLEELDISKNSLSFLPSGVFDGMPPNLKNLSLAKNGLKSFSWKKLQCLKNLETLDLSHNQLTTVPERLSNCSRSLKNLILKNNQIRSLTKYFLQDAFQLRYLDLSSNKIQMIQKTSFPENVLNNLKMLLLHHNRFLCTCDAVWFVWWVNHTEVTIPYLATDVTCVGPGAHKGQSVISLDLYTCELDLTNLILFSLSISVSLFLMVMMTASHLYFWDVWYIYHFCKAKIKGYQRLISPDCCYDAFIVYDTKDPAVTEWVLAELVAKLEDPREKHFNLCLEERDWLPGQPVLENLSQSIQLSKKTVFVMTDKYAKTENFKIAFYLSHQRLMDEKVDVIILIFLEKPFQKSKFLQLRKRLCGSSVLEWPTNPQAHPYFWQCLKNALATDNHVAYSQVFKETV
How it was run: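 Activity expressed as EC50 for half-maximal SEAP induction. Compounds, serially diluted 3-fold from 20 to 0.01 μM, were incubated 24 h at 37 °C, 5% CO2 with HEK-Blue hTLR7 reporter cells (3.10E4/well, plated 18–24 h earlier); supernatant developed with QUANTI-Blue.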

[3] = tested on: TNF-α; experiment: TNF-α cytokine activation in human PBMC (MSD assay); settings: Homo sapiens, PBMC, 24 h
Protocol: as §1, §2, §3, §4

[4] = tested on: IFN-α2a; experiment: IFN-α2a cytokine activation in human PBMC (MSD assay); settings: Homo sapiens, PBMC, 24 h
Protocol: as §1, §2, §3, §4

[5] = tested on: IL-6; experiment: IL-6 cytokine activation in human PBMC (MSD assay); settings: Homo sapiens, PBMC, 24 h, read-out: IL6 EC50
Protocol: as §1, §2, §3, §4

Row | Structure (SMILES) | EC50 [1] | EC50 [2] | EC50 [3] | EC50 [4] | EC50 [5]
1 | CCCCc1nc2c(N)nnc(OC(C)C)c2n1C[C@H]1CC[C@H](CN)CC1 [Compound 20] | 0.0003 µM | 0.028 µM | 2.4 µM | 0.0003 µM | 0.083 µM
2 | CCCCc1nc2c(N)nnc(N(C)Cc3ccc(CN(C)C)cc3)c2n1C [Compound 43, 2-butyl-N7-(4-((dimethylamino)methyl)benzyl)-N7,1-dimethyl-1H-imidazo[4,5-d]pyridazine-4,7-diamine] | 0.015 µM | – | 0.021 µM | 0.022 µM | 0.003 µM
